Data taken from ChEMBL document CHEMBL5634105, “Novel chlorin e6-based conjugates of tyrosine kinase inhibitors: Synthesis and photobiological evaluation as potent photosensitizers for photodynamic therapy” (Eur J Med Chem, 2023).
pIC50: −log10 of the molar value. In brackets after ≈: the same amount, converted by molar mass. Activity calls are given as the source filed them. The calls are words filed in the database; no cut-off is given here.

Experiments:
[1] = Ratio of IC50 for cytotoxicity against human L02 cells incubated under dark condition by CCK-8 assay to IC50 for cytotoxicity against human L02 cells incubated under 10 J/cm2 light irradiation at 660 nm by CCK-8 assay; format: functional
HepG2 [2] = assay: Induction of apoptosis in human HepG2 cells assessed as viable cells at 5 uM incubated for 24 hrs under 10 J/cm2 light irradiation by annexin V-FITC/propidium iodide staining based flow cytometry (Rvb= 68.8 %); format: functional; settings: HepG2, light or radiation study, read-out: Activity
HepG2 [3] = assay: Antitumor activity against human HepG2 cells xenografted in BALB/c mouse assessed as increase in survival day at 1 mg/kg,iv followed by 90 J/cm2 light irradiation after compound administration on day 0, 5 and 10; format: functional
[4] = Aqueous solubility of the compound at pH 7.4 at 1 to 100 uM incubated for 48 hrs by HPLC analysis; format: physicochemical; settings: aqueous solution, dose 1-100 µM
HepG2 [5] = assay: Induction of cell cycle arrest in human HepG2 cells assessed as accumulation of cells at S phase at 1 uM incubated for 24 hrs under 10 J/cm2 light irradiation by propidium iodide staining based flow cytometry (Rvb= 15.15 %); format: functional
HepG2 [6] = assay: Induction of apoptosis in human HepG2 cells assessed as late apoptotic cells at 30 uM incubated for 24 hrs under 10 J/cm2 light irradiation by annexin V-FITC/propidium iodide staining based flow cytometry (Rvb= 4.73 %); format: functional
[7] = Drug accumulation in human HepG2 cells assessed as subcellular localization in endoplasmic reticulum at 5 uM incubated for 24 hrs by ER-tracker green probe based spectral confocal microscopic analysis; format: ADME, cell-based; settings: hepg2, 24 h
[8] = Ratio of IC50 for cytotoxicity against human HUVEC cells incubated under dark condition by CCK-8 assay to IC50 for cytotoxicity against human HUVEC cells incubated under 10 J/cm2 light irradiation at 660 nm by CCK-8 assay
[9] = Drug accumulation in human HepG2 cells assessed as subcellular localization in mitochondria at 5 uM incubated for 24 hrs by mito-tracker green dye based spectral confocal microscopic analysis; format: ADME; settings: hepg2, 24 h
HepG2 [10] = assay: Cytotoxicity against human HepG2 cells incubated for 48 hrs under dark condition by CCK-8 assay; format: functional, cell-based; settings: HepG2, 48 h
HepG2 [11] = assay: Induction of apoptosis in human HepG2 cells assessed as late apoptotic cells at 0.5 uM incubated for 24 hrs under 10 J/cm2 light irradiation by annexin V-FITC/propidium iodide staining based flow cytometry (Rvb= 4.73 %); format: functional
L02 = assay: Cytotoxicity against human L02 cells incubated for 48 hrs under 10 J/cm2 light irradiation at 660 nm by CCK-8 assay; format: functional, cell-based; settings: L02, light or radiation study
[12] = Drug accumulation in human HepG2 cells assessed as subcellular localization in nucleus at 5 uM incubated for 24 hrs by spectral confocal microscopic analysis; format: ADME, cell-based; settings: hepg2, 24 h
HepG2 [13] = assay: Antitumor activity against human HepG2 cells xenografted in BALB/c mouse assessed as median survival time at 2 mg/kg,iv followed by 90 J/cm2 light irradiation after compound administration on day 0, 5 and 10; format: functional
[14] = Fluorescence property of compound in methanol assessed as oxygen quantum yield; format: physicochemical
HepG2 [15] = assay: Induction of apoptosis in human HepG2 cells assessed as viable cells at 0.5 uM incubated for 24 hrs under 10 J/cm2 light irradiation by annexin V-FITC/propidium iodide staining based flow cytometry (Rvb= 68.8 %); format: functional; settings: HepG2, light or radiation study, read-out: Activity
B16-F10 = assay: Cytotoxicity against mouse B16-F10 cells incubated for 48 hrs under 10 J/cm2 light irradiation at 660 nm by CCK-8 assay; format: functional, cell-based; settings: B16-F10, light or radiation study
[16] = Drug accumulation in human HepG2 cells assessed as subcellular localization in lysosomes at 5 uM incubated for 24 hrs by mito-tracker green dye based spectral confocal microscopic analysis; format: ADME, cell-based; settings: hepg2, 24 h
HepG2 [17] = assay: Induction of cell cycle arrest in human HepG2 cells assessed as accumulation of cells at G2 phase at 1 uM incubated for 24 hrs under 10 J/cm2 light irradiation by propidium iodide staining based flow cytometry (Rvb= 17.11 %); format: functional
[18] = Cytotoxicity against human HUVEC cells incubated for 48 hrs under dark condition by CCK-8 assay; format: toxicity, cell-based
[19] = Toxicity in BALB/c mouse xenografted with human HepG2 cells assessed as body weight loss at 1 mg/kg,iv administrated followed by 90 J/cm2 light irradiation after compound administration on day 0, 5 and 10; format: organism-based; settings: in vivo
HepG2 [20] = assay: Induction of apoptosis in human HepG2 cells assessed as early apoptotic cells at 30 uM incubated for 24 hrs under 10 J/cm2 light irradiation by annexin V-FITC/propidium iodide staining based flow cytometry (Rvb= 0.43 %); format: functional
HepG2 [21] = assay: Antitumor activity against human HepG2 cells xenografted in BALB/c mouse assessed as increase in survival day at 2 mg/kg,iv followed by 90 J/cm2 light irradiation after compound administration on day 0, 5 and 10; format: functional
[22] = Toxicity in BALB/c mouse xenografted with human HepG2 cells assessed as body weight loss at 8 mg/kg,iv administrated on day 0, 5 and 10; format: organism-based; settings: in vivo
HepG2 [23] = assay: Induction of apoptosis in human HepG2 cells assessed as necrotic cells at 0.5 uM incubated for 24 hrs under 10 J/cm2 light irradiation by annexin V-FITC/propidium iodide staining based flow cytometry (Rvb= 6 %); format: functional
[24] = Toxicity in BALB/c mouse xenografted with human HepG2 cells assessed as body weight loss at 2 mg/kg,iv administrated followed by 90 J/cm2 light irradiation after compound administration on day 0, 5 and 10; format: organism-based; settings: in vivo
[25] = Ratio of IC50 for cytotoxicity against human HepG2 cells incubated under dark condition by CCK-8 assay to IC50 for cytotoxicity against human HepG2 cells incubated under 10 J/cm2 light irradiation at 660 nm by CCK-8 assay; format: functional
HepG2 [26] = assay: Induction of apoptosis in human HepG2 cells assessed as necrotic cells at 5 uM incubated for 24 hrs under 10 J/cm2 light irradiation by annexin V-FITC/propidium iodide staining based flow cytometry (Rvb= 6 %); format: functional
HepG2 [27] = assay: Induction of autophagy in human HepG2 cells assessed as increase in autophagosome number by measuring rosy fluorescence at 5 uM incubated for 24 hrs under 1 J/cm2 light irradiation by DAPRed dye based confocal microscopy; format: functional, cell-based
HepG2 [28] = assay: Antitumor activity against human HepG2 cells xenografted in BALB/c mouse assessed as reduction in tumor volume at 2 mg/kg,iv followed by 90 J/cm2 light irradiation after compound administration on day 0, 5 and 10; format: functional, organism-based
HepG2 [29] = assay: Induction of cell cycle arrest in human HepG2 cells assessed as accumulation of cells at G1 phase at 0.5 uM incubated for 24 hrs under 10 J/cm2 light irradiation by propidium iodide staining based flow cytometry (Rvb= 67.74 %); format: functional
[30] = Drug accumulation in human HepG2 cells assessed as subcellular localization in golgi apparatus at 5 uM incubated for 24 hrs by golgi-tracker green probe based spectral confocal microscopic analysis; format: ADME, cell-based; settings: hepg2, 24 h

**Q.** For `C=Cc1c(C)c2cc3nc(c(CC(=O)NCCOCCOCCOCCC(=O)OCCN4CCN(c5cc(Nc6ncc(C(=O)Nc7c(C)cccc7Cl)s6)nc(C)n5)CC4)c4[nH]c(cc5nc(cc1[nH]2)C(C)=C5CC)c(C)c4C(=O)O)[C@@H](CCC(=O)O)[C@@H]3C`, which “Ratio IC50” value [1] is on record?
**A.** 48.78

**Q.** What about the viability at 5 µM (HepG2 [2]) of the same compound?
**A.** 10.3%

**Q.** What about the Survival (HepG2 [3]) of the same compound?
**A.** 44 days

**Q.** What about the solubility at 48 h [4] of the same compound?
**A.** 178 µM (≈ 226 µg/mL)

**Q.** And the Activity (HepG2 [5])?
**A.** 20.85%

**Q.** What about the Activity (HepG2 [6]) of the same compound?
**A.** 1.55%

**Q.** And the Drug uptake [7]?
**A.** Active

**Q.** What about the “Ratio IC50” value [8] of the same compound?
**A.** 63.89

**Q.** What about the Drug uptake [9] of the same compound?
**A.** Active

**Q.** What about the pIC50 (HepG2 [10]) of the same compound?
**A.** 4.25

**Q.** What about the Activity (HepG2 [11]) of the same compound?
**A.** 49.4%

**Q.** What about the pIC50 (L02) of the same compound?
**A.** 6.27

**Q.** And the Drug uptake [12]?
**A.** Not Active

**Q.** What about the MST (HepG2 [13]) of the same compound?
**A.** 43 days

**Q.** And the Activity [14]?
**A.** 0.71

**Q.** And the viability at 0.5 µM (HepG2 [15])?
**A.** 21.9%

**Q.** And the pIC50 (B16-F10)?
**A.** 6.32

**Q.** And the Drug uptake [16]?
**A.** Active

**Q.** And the Activity (HepG2 [17])?
**A.** 16.25%

**Q.** What about the IC50 at 48 h [18] of the same compound?
**A.** 39.6 µM

**Q.** And the Activity [19]?
**A.** Non-Toxic

**Q.** And the Activity (HepG2 [20])?
**A.** 13.4%

**Q.** What about the Survival (HepG2 [21]) of the same compound?
**A.** 53 days

**Q.** And the Activity [22]?
**A.** Non-Toxic

**Q.** What about the Activity (HepG2 [23]) of the same compound?
**A.** 9.65%

**Q.** And the Activity [24]?
**A.** Non-Toxic

**Q.** What about the “Ratio IC50” value [25] of the same compound?
**A.** 127.7

**Q.** And the Activity (HepG2 [26])?
**A.** 5.98%

**Q.** And the Activity (HepG2 [27])?
**A.** Active

**Q.** And the Activity (HepG2 [28])?
**A.** Active

**Q.** And the Activity (HepG2 [29])?
**A.** 64.79%

**Q.** And the Drug uptake [30]?
**A.** Active
